Measured values as given in patent US20100267561A1, “HERBICIDAL PYRIDAZINONE DERIVATIVES” (priority 2007, published 2010).

Columns and labels:
Type in all cases: in vivo
[1] = test system: Italian ryegrass (Lolium multiflorum); assay: Test B pre-/postemergence plant response; conditions: for Ryegrass, Italian plant response rating: 8 g ai/ha
Procedure, shortened: (§1)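 Preemergence and postemergence (plants 2-18 cm, 1- to 4-leaf stage) applications used test chemicals in a non-phytotoxic solvent with surfactant. Plants were held in a greenhouse 13 to 15 days, then rated visually against controls on a 0-100 scale (0 no effect, 100 complete control).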

[2] = test system: bermudagrass (Cynodon dactylon); assay: Test B pre-/postemergence plant response; conditions: for Bermudagrass plant response rating: 8 g ai/ha
Procedure, shortened: as §1

[3] = test system: common (oilseed) sunflower (Helianthus annuus); assay: Test B pre-/postemergence plant response; conditions: Preemergence
Procedure, shortened: as §1

[4] = test system: downy bromegrass (Bromus tectorum); assay: Test B pre-/postemergence plant response; conditions: for Bromegrass, Downy plant response rating: 8 g ai/ha
Procedure, shortened: as §1

[5] = test system: giant foxtail (Setaria faberii); assay: Test B pre-/postemergence plant response; conditions: for Foxtail, Giant plant response rating: 8 g ai/ha
Procedure, shortened: as §1

[6] = test system: lambsquarters (Chenopodium album); assay: Test B pre-/postemergence plant response; conditions: for Lambsquarters plant response rating: 8 g ai/ha
Procedure, shortened: as §1

[7] = test system: morningglory (Ipomoea coccinea); assay: Test B pre-/postemergence plant response; conditions: for Morningglory plant response rating: 8 g ai/ha
Procedure, shortened: as §1

[8] = test system: pigweed (Amaranthus retroflexus); assay: Test B pre-/postemergence plant response; conditions: for Pigweed plant response rating: 8 g ai/ha
Procedure, shortened: as §1

[9] = test system: soybean (Glycine max); assay: Test B pre-/postemergence plant response; conditions: for Soybean plant response rating: 8 g ai/ha
Procedure, shortened: as §1

[10] = test system: surinam grass (Brachiaria decumbens); assay: Test B pre-/postemergence plant response; conditions: for Surinam Grass plant response rating: 8 g ai/ha
Procedure, shortened: as §1

[11] = test system: wheat (Triticum aestivum); assay: Test B pre-/postemergence plant response; conditions: for Wheat plant response rating: 8 g ai/ha
Procedure, shortened: as §1

[12] = test system: canarygrass (Phalaris minor); assay: Test B postemergence plant response; conditions: for Plant response rating, Canarygrass: Postemergence
Procedure, shortened: (§2)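 Compounds applied after emergence to 2–18 cm plants; response read visually 13–15 days later on 0 (none) to 100 (complete control); a dash marks no result.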

[13] = test system: chickweed (Stellaria media); assay: Test B postemergence plant response; conditions: for Plant response rating, Chickweed: Postemergence
Procedure, shortened: as §2

[14] = test system: windgrass (Apera spica-venti); assay: Test B postemergence plant response; conditions: for Plant response rating, Windgrass: Postemergence
Procedure, shortened: as §2

[15] = test system: winter barley (Hordeum vulgare); assay: Test B postemergence plant response; conditions: for Plant response rating, Barley: Postemergence, scale 0 to 100, 0 no effect, 100 complete control
Procedure, shortened: as §2

[16] = Postemergence, 16 g ai/ha, scale 0 to 100
[17] = Postemergence, 31 g ai/ha, scale 0 to 100, 0 no effect, 100 complete control
[18] = Postemergence, 62 g ai/ha, scale 0 to 100, 0 no effect, 100 complete control
[19] = Preemergence, 16 g ai/ha, scale 0 to 100 (0 no effect, 100 complete control)
[20] = Preemergence, 31 g ai/ha, scale 0 to 100 (0 no effect, 100 complete control)
[21] = Preemergence, 62 g ai/ha, scale 0 to 100
[22] = Preemergence, 31 g ai/ha, 0 to 100 scale, 0 no effect, 100 complete control
[23] = Preemergence, 62 g ai/ha, 0 to 100 scale, 0 no effect, 100 complete control
[24] = 8 g ai/ha, postemergence, 0-100 scale
[25] = 31 g ai/ha, scale 0 to 100, 0 no effect, 100 complete control
[26] = 62 g ai/ha, scale 0 to 100, 0 no effect, 100 complete control

CCc1cc(-c2ccc(Cl)cc2)nn1-c1c(OC(=O)C(C)(C)C)cnn(C)c1=O [Compound 40]
95: Plant response rating, Ryegrass, Italian [1, 19] | Plant response rating, Ryegrass, Italian [1, 20]
90: Plant response rating, Bermudagrass [2, 19] | Plant response rating, Bromegrass, Downy [4, 21] | Plant response rating, Wheat [11, 23]
35: Barley plant response rating [15, 24]
5: Wheat plant response rating ([11]; Preemergence, scale 0 to 100)
40: Plant response rating, Barley ([15]; 16 g ai/ha)
65: Plant response rating, Bermudagrass [2, 17]
98: Plant response rating, Bermudagrass [2, 18] | Surinam Grass plant response rating ([10]; postemergence, 0-100 scale)
0: Bermudagrass plant response rating ([2]; postemergence, 0-100 scale) | Bermudagrass plant response rating ([2]; Preemergence, scale 0 to 100 (0 no effect, 100 complete control)) | Plant response rating, Sunflower ([3]; 16 g ai/ha, scale 0 to 100 (0 no effect, 100 complete control)) | Plant response rating, Sunflower ([3]; 31 g ai/ha, scale 0 to 100 (0 no effect, 100 complete control)) | Plant response rating, Sunflower ([3]; 62 g ai/ha, scale 0 to 100) | Sunflower plant response rating ([3]; 8 g ai/ha, scale 0 to 100) | Bromegrass, Downy plant response rating ([4]; Preemergence, scale 0 to 100) | Lambsquarters plant response rating ([6]; postemergence, 0-100 scale) | Plant response rating, Lambsquarters [6, 16] | Plant response rating, Lambsquarters [6, 17] | Plant response rating, Lambsquarters [6, 18] | Plant response rating, Lambsquarters [6, 19] | Plant response rating, Lambsquarters [6, 22] | Plant response rating, Lambsquarters [6, 21] | Lambsquarters plant response rating ([6]; Preemergence, scale 0 to 100) | Morningglory plant response rating ([7]; postemergence, 0-100 scale) | Plant response rating, Morningglory [7, 16] | Plant response rating, Morningglory [7, 17] | Plant response rating, Morningglory [7, 18] | Plant response rating, Morningglory [7, 19] | Plant response rating, Morningglory [7, 20] | Plant response rating, Morningglory [7, 21] | Morningglory plant response rating ([7]; Preemergence, scale 0 to 100) | Pigweed plant response rating ([8]; postemergence, 0-100 scale) | Plant response rating, Pigweed [8, 16] | Plant response rating, Pigweed [8, 17] | Plant response rating, Pigweed [8, 18] | Plant response rating, Pigweed [8, 19] | Plant response rating, Pigweed [8, 20] | Plant response rating, Pigweed [8, 21] | Pigweed plant response rating ([8]; Preemergence, scale 0 to 100) | Soybean plant response rating ([9]; postemergence, 0-100 scale) | Plant response rating, Soybean [9, 16] | Plant response rating, Soybean [9, 18] | Plant response rating, Soybean [9, 19] | Plant response rating, Soybean [9, 20] | Plant response rating, Soybean [9, 21] | Soybean plant response rating ([9]; Preemergence, scale 0 to 100) | Chickweed plant response rating [13, 24] | Plant response rating, Chickweed ([13]; 16 g ai/ha, scale 0 to 100) | Plant response rating, Chickweed [13, 25] | Plant response rating, Chickweed [13, 26]
20: Canarygrass plant response rating [12, 24]
60: Plant response rating, Bermudagrass [2, 16] | Plant response rating, Bromegrass, Downy [4, 16] | Plant response rating, Bromegrass, Downy [4, 19] | Plant response rating, Wheat [11, 19] | Plant response rating, Wheat [11, 20]
80: Ryegrass, Italian plant response rating ([1]; postemergence, 0-100 scale) | Ryegrass, Italian plant response rating ([1]; Preemergence, scale 0 to 100) | Plant response rating, Bromegrass, Downy [4, 17] | Plant response rating, Bromegrass, Downy [4, 22] | Surinam Grass plant response rating ([10]; Preemergence, scale 0 to 100) | Plant response rating, Canarygrass [12, 25] | Plant response rating, Canarygrass [12, 26] | Plant response rating, Windgrass ([14]; 16 g ai/ha, scale 0 to 100)
50: Bromegrass, Downy plant response rating ([4]; postemergence, 0-100 scale)
30: Plant response rating, Canarygrass ([12]; 16 g ai/ha, scale 0 to 100)
100: Plant response rating, Ryegrass, Italian [1, 16] | Plant response rating, Ryegrass, Italian [1, 17] | Plant response rating, Ryegrass, Italian [1, 18] | Plant response rating, Ryegrass, Italian [1, 21] | Plant response rating, Bermudagrass [2, 22] | Plant response rating, Bermudagrass [2, 21] | Plant response rating, Bromegrass, Downy [4, 18] | Foxtail, Giant plant response rating ([5]; postemergence, 0-100 scale) | Plant response rating, Foxtail, Giant [5, 16] | Plant response rating, Foxtail, Giant [5, 17] | Plant response rating, Foxtail, Giant [5, 18] | Plant response rating, Foxtail, Giant [5, 19] | Plant response rating, Foxtail, Giant [5, 22] | Plant response rating, Foxtail, Giant [5, 21] | Foxtail, Giant plant response rating ([5]; Preemergence, scale 0 to 100) | Plant response rating, Surinam Grass [10, 16] | Plant response rating, Surinam Grass [10, 18] | Plant response rating, Surinam Grass [10, 19] | Plant response rating, Surinam Grass [10, 20] | Plant response rating, Surinam Grass [10, 23] | Plant response rating, Wheat [11, 18] | Plant response rating, Windgrass [14, 26]
70: Wheat plant response rating ([11]; postemergence, 0-100 scale) | Plant response rating, Wheat [11, 16] | Windgrass plant response rating [14, 24] | Plant response rating, Barley ([15]; 31 g ai/ha) | Plant response rating, Barley ([15]; 62 g ai/ha)
